The values below come from patent US8900626B2, “Transdermal drug delivery system and method of using the same” (Senju USA, Inc., priority 2011, dated 2014).

How the values of the data set were obtained: In vitro permeation study through hairless mouse skin to investigate the skin permeability of clobetasol propionate, amcinonide, betamethasone dipropionate, loteprednol etabonate, dexamethasone, prednisolone acetate and its metabolite (prednisolone).
Steroid patches were prepared according to the following procedure. The steroid (clobetasol propionate, amcinonide, betamethasone dipropionate, loteprednol etabonate, dexamethasone, or prednisolone acetate) was weighed in a clear polypropylene cup. 2 mL of ethyl acetate was added, and dispersed by ultrasonic wave using an ultrasonicator. DURO-TAK® 87-4098 was carefully added in the clear polypropylene cup. The components were mixed using a spatula, and then the lid of the cup was closed to avoid evaporation. A coating bar was adjusted to about 370 μm to control the thickness. The product material was carefully dispensed onto release liner near the coating bar. The coating process was started by moving the coating bar with the hand. The coated sheet was transferred to the oven and heated at 80° C. for 10±1 minutes. The dried sheet was removed from the oven, and laminated with the polyethylene terephthalate film. The thickness of the patch was checked.
The abdominal skin of 6 hairless, 8 week old, female mice were used for in vitro skin permeation experiment. (Horizontal cell, effective volume: 5 mL, effective area: 0.64 cm^2). […] The experimental temperature was controlled at 37° C., and 400 μL it of receptor solution was sampled at 1, 2, 3, 4, 5, 6, 9, 12, 22, 28, 34 and 48 hours. Thereafter, the same amount of the 40% polyethylene glycol 400 solution was added to the receptor cell. The concentration of each steroid in the sampled receptor solution was analyzed with HPLC.

The mark [1] stands for this setting: female, hairless, mouse, 5 % (steroid in patch).

The structures appear in SMILES notation. Like-named read-outs stand apart in the source and are kept apart here.

Regarding `CCC(=O)O[C@]1(C(=O)CCl)[C@@H](C)C[C@H]2[C@@H]3CCC4=CC(=O)C=C[C@]4(C)[C@@]3(F)[C@@H](O)C[C@@]21C` [clobetasol, clobetasol propionate], under setting [1], the “lag-time, times shorter than dexamethasone” value is 6 times; the “lag-time, times shorter than prednisolone” value was found to be 7 times; the “steady-state penetration rate, times higher than that of dexamethasone” value (from here on “steady-state penetration rate … of dexamethasone”) is reported as 8 times; the “steady-state penetration rate, times higher than that of prednisolone” value (from here on “steady-state penetration rate … of prednisolone”) was 14 times.
As to `CC(=O)OCC(=O)[C@@]12OC3(CCCC3)O[C@@H]1C[C@H]1[C@@H]3CCC4=CC(=O)C=C[C@]4(C)[C@@]3(F)[C@@H](O)C[C@@]12C` [amcinonide], under setting [1], the “lag-time, times shorter than dexamethasone” value was 4 times; the “lag-time, times shorter than prednisolone” value worked out at 5 times; the “steady-state penetration rate … of dexamethasone” value amounted to 10 times; the “steady-state penetration rate … of prednisolone” value turned out to be 20 times.
Consider `CCOC(=O)O[C@]1(C(=O)OCCl)CC[C@H]2[C@@H]3CCC4=CC(=O)C=C[C@]4(C)[C@H]3[C@@H](O)C[C@@]21C` [loteprednol, loteprednol etabonate], for which, under setting [1], the “lag-time, times shorter than dexamethasone” value is listed as 4 times; the “lag-time, times shorter than prednisolone” value was 5 times; the “steady-state penetration rate … of dexamethasone” value amounted to 7 times; the “steady-state penetration rate … of prednisolone” value is on record as 12 times.
As for `CCC(=O)OCC(=O)[C@@]1(OC(=O)CC)[C@@H](C)C[C@H]2[C@@H]3CCC4=CC(=O)C=C[C@]4(C)[C@@]3(F)[C@@H](O)C[C@@]21C` [betamethasone, betamethasone dipropionate], the “lag-time, times shorter than dexamethasone” value turned out to be 3 times; the “lag-time, times shorter than prednisolone” value amounted to 4 times; the “steady-state penetration rate … of dexamethasone” value came out at 3 times; the “steady-state penetration rate … of prednisolone” value turned out to be 6 times.
